Results reported in ChEMBL document CHEMBL1154954, “Synthesis and in vitro evaluation of (18)F-labelled S-fluoroalkyl diarylguanidines: Novel high-affinity NMDA receptor antagonists for imaging with PET” (Bioorg Med Chem Lett, 2010).
pIC50, pKd: −log10 of the molar value. Activity calls are given as the source filed them. No cut-off for these calls is given here.

Columns and labels:
[1] = Binding affinity to NMDA receptor PCP binding site
[2] = biological target: Sodium-dependent noradrenaline transporter (Homo sapiens) (UniProt P23975); test: Inhibition of norepinephrine transporter at 10 nM; details: tested as the 18F-labelled form
[3] = Inhibition of GABA A receptor at 1 uM; details: tested as the 18F-labelled form
[4] = Inhibition of sigma 2 receptor at 10 nM; details: tested as the 18F-labelled form
[5] = Inhibition of opioid receptor at 10 nM; details: tested as the 18F-labelled form
[6] = biological target: 5-hydroxytryptamine receptor 5A (Homo sapiens) (UniProt P47898); test: Inhibition of 5HT5A receptor at 10 nM; details: tested as the 18F-labelled form
[7] = Inhibition of GABA A receptor at 10 nM; details: tested as the 18F-labelled form
[8] = biological target: Sodium-dependent noradrenaline transporter (Homo sapiens) (UniProt P23975); test: Inhibition of norepinephrine transporter at 1 uM; details: tested as the 18F-labelled form
[9] = Inhibition of sigma 2 receptor at 1 uM; details: tested as the 18F-labelled form
[10] = Inhibition of voltage gated sodium channel site 2 at 10 nM; details: tested as the 18F-labelled form
[11] = Inhibition of opioid receptor at 1 uM; details: tested as the 18F-labelled form
[12] = biological target: Sigma non-opioid intracellular receptor 1 (Homo sapiens) (UniProt Q99720); test: Inhibition of sigma 1 receptor at 10 nM; details: tested as the 18F-labelled form
[13] = biological target: Sigma non-opioid intracellular receptor 1 (Homo sapiens) (UniProt Q99720); test: Inhibition of sigma 1 receptor at 1 uM; details: tested as the 18F-labelled form
[14] = Inhibition of voltage gated sodium channel site 2 at 1 uM; details: tested as the 18F-labelled form
[15] = biological target: 5-hydroxytryptamine receptor 5A (Homo sapiens) (UniProt P47898); test: Inhibition of 5HT5A receptor at 1 uM; details: tested as the 18F-labelled form
Glutamate NMDA receptor = test: Displacement of [3H]TCP from NMDA receptor PCP binding site in rat cerebral cortex homogenate; format: tissue-based
[16] = Distribution coefficient, log D at pH 7.5; format: physicochemical; details: octanol/water
[17] = Octanol-phosphate buffer partition coefficient, log D at pH 7.4; format: physicochemical
hERG (KCNH2) = hERG (KCNH2) (Homo sapiens, UniProt Q12809); test: Inhibition of human ERG at 1 uM
[18] = biological target: Voltage-gated inwardly rectifying potassium channel KCNH2 (Homo sapiens, UniProt Q12809); test: Inhibition of human ERG at 10 nM; details: 0.01 µM
[19] = Lipophilicity, log D of the compound; format: physicochemical; details: octanol/water

Chain of 5-hydroxytryptamine receptor 5A (Homo sapiens) (P47898 whole entry): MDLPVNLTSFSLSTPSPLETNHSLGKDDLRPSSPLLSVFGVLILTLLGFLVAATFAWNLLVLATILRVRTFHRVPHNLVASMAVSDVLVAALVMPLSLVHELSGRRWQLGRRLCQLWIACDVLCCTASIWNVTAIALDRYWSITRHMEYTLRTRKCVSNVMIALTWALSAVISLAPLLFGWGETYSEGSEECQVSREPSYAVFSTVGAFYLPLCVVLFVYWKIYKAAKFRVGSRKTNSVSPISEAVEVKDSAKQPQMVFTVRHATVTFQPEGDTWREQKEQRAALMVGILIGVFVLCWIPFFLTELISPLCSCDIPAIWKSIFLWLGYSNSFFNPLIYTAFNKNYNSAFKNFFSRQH
Chain of Sigma non-opioid intracellular receptor 1 (Homo sapiens) (Q99720 whole entry): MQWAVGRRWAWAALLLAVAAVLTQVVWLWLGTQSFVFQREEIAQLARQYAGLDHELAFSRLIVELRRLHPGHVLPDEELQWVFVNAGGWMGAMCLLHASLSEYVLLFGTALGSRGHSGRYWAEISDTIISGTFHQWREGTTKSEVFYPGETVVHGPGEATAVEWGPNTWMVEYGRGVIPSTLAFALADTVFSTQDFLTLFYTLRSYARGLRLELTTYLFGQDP
Chain of Sodium-dependent noradrenaline transporter (Homo sapiens) (P23975 whole entry): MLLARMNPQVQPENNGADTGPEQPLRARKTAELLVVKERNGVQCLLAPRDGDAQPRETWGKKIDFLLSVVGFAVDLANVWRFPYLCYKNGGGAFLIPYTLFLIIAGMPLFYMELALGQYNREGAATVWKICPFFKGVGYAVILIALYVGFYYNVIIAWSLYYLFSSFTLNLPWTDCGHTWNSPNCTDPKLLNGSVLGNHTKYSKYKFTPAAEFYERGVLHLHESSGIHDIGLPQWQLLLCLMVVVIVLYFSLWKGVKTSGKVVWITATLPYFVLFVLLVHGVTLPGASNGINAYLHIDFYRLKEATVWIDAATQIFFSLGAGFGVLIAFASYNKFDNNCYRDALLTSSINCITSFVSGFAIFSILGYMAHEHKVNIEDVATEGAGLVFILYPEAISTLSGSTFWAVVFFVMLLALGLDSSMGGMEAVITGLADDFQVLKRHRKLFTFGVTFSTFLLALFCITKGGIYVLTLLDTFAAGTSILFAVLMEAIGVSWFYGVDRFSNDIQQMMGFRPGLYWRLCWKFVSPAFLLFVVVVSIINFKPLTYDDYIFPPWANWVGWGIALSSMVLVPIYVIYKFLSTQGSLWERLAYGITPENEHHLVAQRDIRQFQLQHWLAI
Chain of Voltage-gated inwardly rectifying potassium channel KCNH2 (Q12809 whole entry): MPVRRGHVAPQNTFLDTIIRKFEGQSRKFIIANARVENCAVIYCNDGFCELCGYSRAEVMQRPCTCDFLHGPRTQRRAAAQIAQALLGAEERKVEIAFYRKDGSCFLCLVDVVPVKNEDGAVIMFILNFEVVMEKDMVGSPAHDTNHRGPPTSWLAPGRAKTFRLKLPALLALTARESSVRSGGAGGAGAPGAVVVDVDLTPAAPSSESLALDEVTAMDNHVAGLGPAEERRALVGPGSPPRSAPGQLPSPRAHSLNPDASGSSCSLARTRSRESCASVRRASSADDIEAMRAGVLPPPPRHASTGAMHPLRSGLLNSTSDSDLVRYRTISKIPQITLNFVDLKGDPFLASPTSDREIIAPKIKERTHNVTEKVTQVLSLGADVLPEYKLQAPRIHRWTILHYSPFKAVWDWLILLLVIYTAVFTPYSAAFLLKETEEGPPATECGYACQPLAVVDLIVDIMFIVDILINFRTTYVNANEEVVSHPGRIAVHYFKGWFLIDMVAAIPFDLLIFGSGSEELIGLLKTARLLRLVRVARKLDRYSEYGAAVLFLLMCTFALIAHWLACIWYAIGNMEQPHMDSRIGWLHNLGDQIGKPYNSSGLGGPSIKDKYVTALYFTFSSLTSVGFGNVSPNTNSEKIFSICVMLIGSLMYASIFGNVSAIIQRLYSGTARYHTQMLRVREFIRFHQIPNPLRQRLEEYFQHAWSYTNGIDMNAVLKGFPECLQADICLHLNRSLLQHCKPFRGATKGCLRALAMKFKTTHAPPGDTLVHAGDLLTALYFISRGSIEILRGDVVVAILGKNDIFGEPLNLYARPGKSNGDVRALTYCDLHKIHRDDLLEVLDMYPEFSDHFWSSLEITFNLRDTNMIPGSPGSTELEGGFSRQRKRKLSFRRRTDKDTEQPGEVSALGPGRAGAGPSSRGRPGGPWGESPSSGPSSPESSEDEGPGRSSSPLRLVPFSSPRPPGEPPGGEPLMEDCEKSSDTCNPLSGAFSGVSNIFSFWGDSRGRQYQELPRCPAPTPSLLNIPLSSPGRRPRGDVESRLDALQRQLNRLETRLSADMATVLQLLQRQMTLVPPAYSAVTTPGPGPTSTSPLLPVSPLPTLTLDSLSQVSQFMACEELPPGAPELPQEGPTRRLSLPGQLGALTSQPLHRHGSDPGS
Chain of hERG (KCNH2) (Q12809 whole entry): as above

With CSc1ccc(Cl)c(NC(=N)N(C)c2cccc(O[11CH3])c2)c1 the pKd [1] was 8.28.

With C[C@]12C[C@@H]3C[C@](N)(C1)C[C@@](C[18F])(C3)C2 the pIC50 [1] was 5.22.

For CSc1cccc(N(C)C(=N)Nc2cc(SCCF)ccc2Cl)c1, the Activity [2] was “inactive”, the Activity [3] was “Active” and the Activity [4] was “inactive”. The Activity [5] was “inactive”, the Activity [6] was “inactive” and the Activity [7] was “inactive”. For the same molecule, the Activity [8] was “Active”, the Activity [9] was “Active” and the Activity [10] was “inactive”. The Activity [11] was “Active”, the Activity [12] was “inactive” and the Activity [13] was “Active”. The inhibition [14] was 47% and the Activity [15] was “Active”.

Molecule [11CH3]NC1(c2ccccc2)CCCCC1=O (centres undefined) [[11C]KETAMINE] has a pKd [1] of 5.92.

For CSc1ccc(Cl)c(NC(=N)N(C)c2cccc(S[11CH3])c2)c1, the pKd (Glutamate NMDA receptor) was 8.75, the pKd [1] was 8.72 and the logD [16] was 2.68.

Work on CSc1cccc(N(C)C(=N)Nc2cc(SCC[18F])ccc2Cl)c1 yielded a pKd (Glutamate NMDA receptor) of 8.63, a logD [17] of 2.49 and an inhibition at 1 µM (hERG (KCNH2)) of 56%. The Activity [18] was “Not Active”.

[18F]CCc1ccc(C2(N3CCCCC3)CCCCC2)s1 gave a pKd [1] of 7.42.

Work on CN(C(=N)Nc1cccc2ccccc12)c1cccc([123I])c1 yielded a pKd [1] of 8.38 and a logD [19] of 2.19.

Work on CSc1cccc(N(C)C(=N)Nc2cc(SC[18F])ccc2Cl)c1 yielded a pKd (Glutamate NMDA receptor) of 8.86.

Molecule [18F]CC12NC(Cc3ccccc31)c1ccccc12 (centres undefined) has a pKd [1] of 7.10.
